# Measurements taken from patent US20090111893A1, “METHOD OF LOWERING BLOOD GLUCOSE AND METHOD OF PREVENTING OR TREATING BLOOD GLUCOSE AND METHOD OF PREVENTING OR TREATING DIABETES AND OBESITY” (National University Corporation Gunma University, priority 2007, published 2009).
# Columns and labels:
# ICR mice = assay: Blood glucose level in ICR mice after intraperitoneal glucose; type: in vivo, mouse; conditions: glucose 0.3 g/kg i.p. together with DIF-1, 50 mg/kg group and 100 mg/kg group, FIG. 7
# Procedure: Glucose (0.3 g/kg) was administered intraperitoneally to ICR mice (male, 6-7 weeks) together with DIF-1 (solvent: 5% DMSO, 5% CREMOPHOR, and 90% distilled water), and blood glucose level was determined from just after the administration. Mice to which only glucose was administered was used as a control group, and mice to which neither glucose nor DIF-1 was administered was used as a normal group.
# KKAy diabetic model mice = type: in vivo; conditions: for blood glucose level as compared with the control group: KKAy mice, intraperitoneal 25, 50 and 100 mg/kg, 4 and 8 hours after administration, n=2, FIG. 6; for death of mice: mouse, in vivo
# Procedure: The in vivo effects of DIF-1 and DIF-1 (3M) were also evaluated with the KKAy diabetic model mice. The drugs were administered intraperitoneally to KKAy mice (male, 13 weeks: Clea Japan) at the concentrations of 25, 50, and 100 mg/kg, respectively, and after free feeding (Time 0), blood glucose level was monitored at the indicated time points (FIG. 6). Each of the experiments used two mice, and the mean values of the relative blood glucose concentrations and ½ variance (Bars)(n=2) were plotted.
# 3T3-L1 adipocytes = assay: 2-deoxy glucose uptake in 3T3-L1 adipocytes, with or without insulin; type: cell-based, mouse
# Procedure: Confluent 3T3-L1 fibroblasts (cultured in a 12-well plate) were treated with IBMX (3-isobutyl-1-methylxanhine), dexamethasone, and insulin to induce differentiation into 3T3-L1 adipocytes (Student A K, Hsu R Y & Lane M D (1980) J. Biol. Chem. 255, 4745-4750.). The 3T3-L1 adipocytes were cultured in the presence of DIF-1 whose concentration is shown in FIG. 5 for four hours, and 2-deoxy glucose uptake was measured. At the same time, some of the adipocytes were stimulated with 100 nM insulin during cultivation (after 3.5 hours) in the presence of DIF-1, and cultured for another 30 minutes, and glucose uptake of the cells was measured. Each experiment was performed in triplicates, and the mean values thereof were calculated in each experiment. Such experiments were performed twice and the mean values and ½ variance (Bars) of the two experiments (n=2) were plotted in FIG. 5.
# [1] = tested on: RGM-1 cells (isolated from rat gastric mucosa); assay: Glucose uptake of RGM-1 cells (glucose concentration in medium); type: cell-based
# Procedure: Similar experiments were performed with RGM-1 cells (isolated from rat gastric mucosa) to evaluate the change in glucose concentration in the medium containing DIF-1 or other compounds (FIG. 4). The data of the graph are mean values and standard deviations (Bars) (n=3) of triplicate samples measured under the same conditions.
# Mouse 3T3-L1 fibroblasts = assay: Glucose uptake of confluent 3T3-L1 fibroblasts (glucose concentration in medium); type: cell-based; conditions: for glucose uptake-promoting activity: 3T3-L1 cells, same condition as Example 1, FIG. 3, n=3
# Procedure: (1) Mouse 3T3-L1 fibroblasts were cultured in 1 ml of a suitable medium (contained in a 12-well plastic dish) for several days until the cells reached confluence. Then, the cells were cultured for 10-12 hours in the nutrition medium (None), the nutrition medium to which only 0.2% ethanol, a solvent of DIF-1, was added (EtOH), and the nutrition medium to which 10 or 20 µM DIF-1 dissolved in ethanol was added, respectively, and then, glucose concentration in each of the media was determined, based on which glucose uptake rate of the cells was calculated and the ratio with respect to the control was plotted (FIG. 1). […] The data of FIG. 1 are shown by mean value and standard deviation (Bars) of four independent experiments (n=4). (2) Then, mouse 3T3L1 fibroblasts were cultured in 1 ml of a suitable medium (contained in a 12-well plastic dish) until the cells reached confluence. After changing the medium to a new medium (this time point corresponds to 0 hour in the graph), DIF-1 was added, and glucose concentration in the medium was measured at the time point of 20 hours (FIG. 2A), based on which glucose consumption rate was calculated (FIG. 2B). Then, the media were changed to new media containing no DIF-1 for all the samples, and after culture was continued for another 20 hours, glucose concentration was measured (FIG. 2A). The number of cells at this time point was also determined (FIG. 2C). The data of the graph are mean values and standard deviations (Bars) (n=3) of the results of triplicate samples evaluated under the same conditions.
# Glucose uptake-promoting activity of DIF-1 and its artificial derivatives (2-MIDIF1, DMPH, THPH) were compared in the same condition as Example 1 (FIG. 3). The data of the graph are mean values and standard deviations (Bars) (n=3) of three independent experiments.
# Glucose uptake-promoting activity of DIF-1 derivative compounds in 3T3-L1 cells was evaluated in the same manner as described above. The data of the graph are mean values and standard deviations (Bars) (n=3) of triplicate samples measured under the same conditions.
structure (smiles),measurement,setting,value
CCCCCC(=O)c1c(O)c(Cl)c(OC)c(Cl)c1O [DIF-1],blood glucose level as compared with the control group,ICR mice,significantly lowered blood glucose level
same,blood glucose level as compared with the control group,KKAy diabetic model mice,low blood glucose level
same,death of mice,KKAy diabetic model mice,No mice died
same,2-deoxy glucose uptake,"3T3-L1 adipocytes; DIF-1 singly, four hours, FIG. 5, n=2",promoted glucose uptake in a concentration-dependent manner
same,2-deoxy glucose uptake with insulin,"3T3-L1 adipocytes; relatively low concentration of DIF-1 plus 100 nM insulin for the last 30 minutes, FIG. 5",additive effect with insulin
same,glucose uptake,"[1]; 6- and 12-hour culture, FIG. 4",promotes glucose uptake in a concentration-dependent manner
same,cell number,"[1]; after 12-hour culture, FIG. 4C",without influencing cell number
same,cell morphology and cell damage by microscopic observation,Mouse 3T3-L1 fibroblasts; 3T3-L1 fibroblasts in the presence of DIF-1,cell damage was not observed
same,glucose uptake ratio of the cell (ratio with respect to the control),"Mouse 3T3-L1 fibroblasts; 3T3-L1 fibroblasts, 10-12 hours culture, 10 or 20 µM DIF-1, FIG. 1, n=4",increased dependently on DIF-1 concentration
same,glucose uptake of cells (glucose consumption rate),"Mouse 3T3-L1 fibroblasts; 3T3-L1 fibroblasts, 20-hour culture with DIF-1, FIG. 2A/2B, n=3",promotes glucose uptake of cells in a concentration-dependent manner
same,number of cells,"Mouse 3T3-L1 fibroblasts; 3T3-L1 fibroblasts, after 40-hour culture, FIG. 2C",without influencing the number of cells
same,reversibility of the action on glucose uptake,"Mouse 3T3-L1 fibroblasts; 3T3-L1 fibroblasts, medium changed to DIF-1-free medium, another 20 hours, FIG. 2A",reversible
"C/C=C(/C)C(=O)O[C@H]1C(C)=C2[C@H]([C@@H]1OC(=O)CCCCCCC)[C@@](C)(OC(C)=O)C[C@H](OC(=O)CCC)[C@@]1(O)[C@H]2OC(=O)[C@@]1(C)O [Tg, Thapsigargin, reference compound]",glucose uptake-promoting activity,Mouse 3T3-L1 fibroblasts,did not promote glucose uptake
"COCc1nc2c([nH]1)c(=O)n(C)c(=O)n2CC(C)C [8-MIBMX, reference compound]",glucose uptake-promoting activity,Mouse 3T3-L1 fibroblasts,did not promote glucose uptake
"CNc1ccc2oc(C[C@H]3O[C@@]4(CC[C@H]3C)O[C@H]([C@H](C)C(=O)c3ccc[nH]3)[C@H](C)C[C@H]4C)nc2c1C(=O)O [A23187, reference compound]",glucose uptake-promoting activity,Mouse 3T3-L1 fibroblasts,did not promote glucose uptake
COc1c(Cl)c(O)c(C(=O)CC(C)(C)C)c(O)c1Cl [DIF-1 (3M)],blood glucose level as compared with the control group,KKAy diabetic model mice,low blood glucose level
same,death of mice,KKAy diabetic model mice,No mice died
